Results: patent US11401278B2, “Macrocyclic indole derivatives” (The Broad Institute, Inc., priority 2017, dated 2022)
Where “and” joins values, the source holds several entries; their conditions need not be identical. Identical values can stand only once. Counter-ions that a name gives are not always drawn. Like-named read-outs stand apart in the source and are kept apart here.

What was measured:
[1] = target: BCL-XL (Homo sapiens (Human), UniProt Q07817); experiment: Protein-protein interaction assay BCL-XL/Bad BH3 peptide (BCL-XL assay, TR-FRET); type: binding; conditions: His-BCL-XL / Bad BH3 peptide, median
Procedure, shortened: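 His-tagged human BCL-XL (aa 1-212, 1 nM final) was preincubated 10 min at 22 °C with compound (11 concentrations, 0.1 nM–20 μM), then biotinylated Bad BH3 peptide (1 nM) and TR-FRET reagents were added. Incubation: 1 h at 22 °C, then overnight at 4 °C, pH 7 Tris buffer. IC50 from 4-parameter fit of 665/620 ratio.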

[2] = test system: MV-4-11; experiment: Antiproliferation assay (Assay 7), MV-4-11; type: cell-based; conditions: CellTiter-Glo, 72 hours, several values per example, listed as 08, read-out: Antiproli MV-4-11 [M] IC50
Procedure, shortened: (§1)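 Proliferation was read by CellTiter-Glo luminescence after 72 hours of compound treatment at 37° C. The read was referenced to a parallel plate measured at time zero.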

[3] = test system: HMC-1-8; experiment: Antiproliferation assay (Assay 7), HMC-1-8; type: cell-based; conditions: CellTiter-Glo, several values per example, read-out: Antiproli HMC-1-8 [M] IC50
Procedure, shortened: as §1

Sequence of BCL-XL (Q07817 other isoform, or with tags, fused parts or gaps): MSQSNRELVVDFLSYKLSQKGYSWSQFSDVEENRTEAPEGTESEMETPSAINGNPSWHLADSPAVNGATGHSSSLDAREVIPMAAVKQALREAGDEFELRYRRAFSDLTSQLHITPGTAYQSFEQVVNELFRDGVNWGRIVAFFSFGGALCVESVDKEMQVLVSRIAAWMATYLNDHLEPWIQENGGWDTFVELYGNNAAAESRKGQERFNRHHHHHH

IC50 [1] [µM]	IC50 [2] [M]	SMILES	IC50 ([3]; 72 h) [M]	IC50 ([3]; 72 hours)
> 20	1.18e-06	CCc1c2c(nn1C)CN(C)S(=O)(=O)CCCn1c(C(=O)O)c(CCCOc3cccc4cc(F)ccc34)c3ccc(F)c-2c31 (single isomer, unassigned; enantiomer 1) [Example 8, (+)-3-Ethyl-4-fluoro-7-{3-[(6-fluoronaphthalen-1-yl)oxy]propyl}-2,14-dimethyl-13,13-dioxo-10,11,12,13,14,15-hexahydro-2H-13λ^6-pyrazolo[3′,4′:4,5][1,2,8]thiadiazacycloundecino-[6,7,8-hi]indole-8-carboxylic acid (Enantiomer 1)]	2.2e-06	–
> 20	–	Cc1c2c(nn1C)C(CCN1CCOCC1)N(C)S(=O)(=O)CCCn1c(C(=O)O)c(CCCOc3cccc4ccccc34)c3cccc-2c31 (single isomer, unassigned; enantiomer 2) [Example 46, 2,3,14-trimethyl-15-[2-(morpholin-4-yl)ethyl]-7-{3-[(naphthalen-1-yl)oxy]propyl}-13,13-dioxo-10,11,12,13,14,15-hexahydro-2H-13lambda^6-pyrazolo[3′,4′:4,5][1,2,8]thiadiazacycloundecino[6,7,8-hi]indole-8-carboxylic acid N-ethylethanamine Salt (Enantiomer 2)]	–	9.4e-06 M and 1.2e-05 M
16	–	Cc1c2c(nn1C)CNS(=O)(=O)CCCn1c(C(=O)O)c(CCCOc3cccc4cc(F)ccc34)c3ccc(Cl)c-2c31 (single isomer, unassigned; enantiomer 2) [Example 52, 4-chloro-7-{3-[(6-fluoronaphthalen-1-yl)oxy]propyl}-2,3-dimethyl-13,13-dioxo-10,11,12,13,14,15-hexahydro-2H-13lambda^6-pyrazolo[3′,4′:4,5][1,2,8]thiadiazacycloundecino[6,7,8-hi]indole-8-carboxylic acid (Enantiomer 2)]	–	> 3.3e-05 M
18	–	CCc1c2c(nn1C)C(CCC1CCOCC1)N(C)S(=O)(=O)CCCn1c(C(=O)O)c(CCCOc3cccc4cc(F)ccc34)c3ccc(Cl)c-2c31 (single isomer, unassigned; enantiomer 2) [Example 62, (−)-4-chloro-3-ethyl-7-{3-[(6-fluoronaphthalen-1-yl)oxy]propyl}-2,14-dimethyl-15-[2-(oxan-4-yl)ethyl]-13,13-dioxo-10,11,12,13,14,15-hexahydro-2H-13lambda^6-pyrazolo[3′,4′:4,5][1,2,8]thiadiazacycloundecino[6,7,8-hi]indole-8-carboxylic acid (Enantiomer 2)]	–	2.1e-05 M
> 20	–	CCc1c2c(nn1C)C(CCC1CCOCC1)N(C)S(=O)(=O)CCCn1c(C(=O)O)c(CCCOc3cccc4cc(F)ccc34)c3ccc(Cl)c-2c31 (single isomer, unassigned; enantiomer 4) [Example 64, (−)-4-chloro-3-ethyl-7-{3-[(6-fluoronaphthalen-1-yl)oxy]propyl}-2,14-dimethyl-15-[2-(oxan-4-yl)ethyl]-13,13-dioxo-10,11,12,13,14,15-hexahydro-2H-13lambda^6-pyrazolo[3′,4′:4,5][1,2,8]thiadiazacycloundecino[6,7,8-hi]indole-8-carboxylic acid (Enantiomer 4)]	–	1.1e-05 M

SMILES	IC50 [1] [µM]	IC50 [2] [M]	IC50 ([3]; 72 h) [M]	IC50 ([3]; 72 hours)
Cc1c2c(nn1C)CN(C1CC1)S(=O)(=O)CCCn1c(C(=O)O)c(CCCOc3cccc4cc(F)ccc34)c3ccc(Cl)c-2c31 (single isomer, unassigned; enantiomer 2) [Example 43, (+)-4-chloro-14-cyclopropyl-7-{3-[(6-fluoro-1-naphthyl)oxy]propyl}-2,3-dimethyl-11,12,14,15-tetrahydro-2H,10H-pyrazolo[3′,4′:4,5][1,2,8]thiadiazacycloundecino[6,7,8-hi]indole-8-carboxylic acid 13,13-dioxide N-diethylamine salt (Enantiomer 2)]	> 20	–	–	> 3.3e-05 M
Cc1c2c(nn1C)CN(C1CC1)S(=O)(=O)CCCn1c(C(=O)O)c(CCCOc3cccc4ccccc34)c3ccc(Cl)c-2c31 [Example 40, (rac)-4-chloro-14-cyclopropyl-2,3-dimethyl-7-[3-(1-naphthyloxy)propyl]-11,12,14,15-tetrahydro-2H,10H-pyrazolo[3′,4′:4,5][1,2,8]thiadiazacycloundecino[6,7,8-hi]indole-8-carboxylic acid 13,13-dioxide]	19	–	–	7.2e-06 M
